Source: patent US7115728B1, “Human peroxisome proliferator activated receptor γ” (Ligand Pharmaceutical Incorporated, priority 1995, dated 2006)

Key:
hPPARγ [1] = biological target: T1, hPPARγ (Homo sapiens, UniProt P37231); assay: Co-transfection assay, transactivation of hPPARγ (pCMVhPPARγ) in CV-1 cells, FIG. 1; conditions: CV-1 cells transfected with 0.1 μg pCMVhPPARγ; compared with empty vector pBKCMV (no receptor)
T1 sequence (P37231 with tags, fused parts or gaps limits assumed): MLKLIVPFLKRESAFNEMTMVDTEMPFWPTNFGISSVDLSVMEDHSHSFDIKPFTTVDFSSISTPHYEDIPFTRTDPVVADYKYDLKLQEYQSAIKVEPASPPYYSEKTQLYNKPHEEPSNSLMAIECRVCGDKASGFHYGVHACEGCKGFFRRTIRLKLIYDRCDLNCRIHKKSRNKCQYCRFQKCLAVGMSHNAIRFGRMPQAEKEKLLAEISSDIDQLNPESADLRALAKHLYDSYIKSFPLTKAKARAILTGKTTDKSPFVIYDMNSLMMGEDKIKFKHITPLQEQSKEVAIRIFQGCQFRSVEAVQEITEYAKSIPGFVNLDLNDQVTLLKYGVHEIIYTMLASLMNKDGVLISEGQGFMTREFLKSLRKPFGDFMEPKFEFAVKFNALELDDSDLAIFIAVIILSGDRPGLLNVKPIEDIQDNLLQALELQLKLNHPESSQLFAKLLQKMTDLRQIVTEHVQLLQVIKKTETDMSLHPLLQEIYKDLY
Protocol: CV-1 cells were transfected with 0.1 μg pCMVhPPARγ or the empty expression vector pBKCMV (no receptor).
CV-1 or HepG2 cells were grown in Dulbecco's modified Eagle's medium (DMEM) supplemented with 10% (v/v) fetal bovine serum (Hyclone), 2 mM L-glutamine, and 55 μg/ml gentamicin (BioWhittaker). Cells were plated at 2×10^5 cells per well for HepG2 in 12 well cell culture dishes (Costar). The media was replaced with fresh media 20 hours later.
After 14 hours the cells were washed with 1×PBS and fresh media added (DMEM with 10% charcoal stripped fetal bovine serum (Hyclone) plus the above supplements). Ligands or PPAR activators were added to the final concentrations indicated. Control cells were treated with vehicle.
After another 24 hours the cells were harvested and the luciferase and β-galactosidase activities quantified on a Dynatech ML 1000 luminometer and a Beckman Biomek 1000 workstation respectively. The normalized response is the luciferase activity of the extract divided by the β-galactosidase activity of the same. Each data point represents the mean of three transfections. Error bars represent the standard deviation from the mean.
Control cells received an equivalent amount of vehicle. In the repression assays repressor plasmid dosage was kept constant by adding the appropriate amount of the empty expression vector pBKCMV.

hPPARα = biological target: T2, hPPARα (Homo sapiens, UniProt Q07869); assay: Co-transfection assay, activation of hPPARα, FIG. 2; type: cell-based; conditions: CV-1 cells transfected with 0.1 μg pCMVhPPARα; gemfibrozil final concentration printed as 100 M
T2 construct: expressed in transfected cells; host or cells: CV-1 cells
T2 sequence (Q07869 1-468): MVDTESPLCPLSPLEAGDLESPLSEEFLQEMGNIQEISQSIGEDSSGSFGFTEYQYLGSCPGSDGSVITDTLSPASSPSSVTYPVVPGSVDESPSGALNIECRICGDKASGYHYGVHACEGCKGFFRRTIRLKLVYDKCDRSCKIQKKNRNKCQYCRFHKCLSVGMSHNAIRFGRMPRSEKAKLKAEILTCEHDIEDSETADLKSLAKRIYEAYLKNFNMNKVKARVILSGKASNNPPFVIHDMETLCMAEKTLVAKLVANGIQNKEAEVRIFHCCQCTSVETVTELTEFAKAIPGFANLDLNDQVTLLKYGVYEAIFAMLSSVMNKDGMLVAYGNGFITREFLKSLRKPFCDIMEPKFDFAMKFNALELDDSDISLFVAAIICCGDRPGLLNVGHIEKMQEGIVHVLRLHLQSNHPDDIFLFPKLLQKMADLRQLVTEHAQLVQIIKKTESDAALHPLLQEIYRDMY
Protocol: CV-1 cells were transfected with 0.1 μg of pCMVhPPARα and 0.1 or 0.4 μg of pCMVhNUC1 or pCMVhPPARγ. Gemfibrozil was added to a final concentration of 100 µM.
(§1) Biochem. Molec. Biol. 41, 733–738).
Where indicated, 0–0.5 μg of hNUC1B plasmid or hPPARγ plasmid (repressor) was added. Repressor plasmid dosage was kept constant by the addition of appropriate amounts of the empty expression vector pBKCMV. Total amount of DNA was kept at 20 μg by the addition of pGEM DNA (Promega).
(§2) Control cells were treated with vehicle.
(§3) Each data point represents the mean of three transfections. Error bars represent the standard deviation from the mean.
hPPARα is activated in the presence of gemfibrozil. When hNUC1 or hPPARγ is contransfected into cells along with hPPARα, a dose dependant repression was observed (FIG. 2). Repression of hPPARα with hNUC1 is stronger than with hPPARγ. No repression with 0.1 μg of hPPARγ was observed while repression with 0.1 μg of hNUC1 was clearly seen. However, repression with 0.4 μg of hPPARγ was observed.

hPPARγ [2] = biological target: T3, hPPARγ (Homo sapiens, UniProt P37231); assay: Co-transfection assay with pCMVhPPARγ3 and pPREA3-tk-LUC reporter in CV-1 cells, FIG. 4; type: cell-based; conditions: CV-1 cells transfected with pCMVhPPARγ3; pPREA3-tk-LUC; 1 μM compound; read-out: fold induction of reporter gene
T3 construct: expressed in transfected cells; host or cells: CV-1 cells
T3 sequence (P37231 31-505): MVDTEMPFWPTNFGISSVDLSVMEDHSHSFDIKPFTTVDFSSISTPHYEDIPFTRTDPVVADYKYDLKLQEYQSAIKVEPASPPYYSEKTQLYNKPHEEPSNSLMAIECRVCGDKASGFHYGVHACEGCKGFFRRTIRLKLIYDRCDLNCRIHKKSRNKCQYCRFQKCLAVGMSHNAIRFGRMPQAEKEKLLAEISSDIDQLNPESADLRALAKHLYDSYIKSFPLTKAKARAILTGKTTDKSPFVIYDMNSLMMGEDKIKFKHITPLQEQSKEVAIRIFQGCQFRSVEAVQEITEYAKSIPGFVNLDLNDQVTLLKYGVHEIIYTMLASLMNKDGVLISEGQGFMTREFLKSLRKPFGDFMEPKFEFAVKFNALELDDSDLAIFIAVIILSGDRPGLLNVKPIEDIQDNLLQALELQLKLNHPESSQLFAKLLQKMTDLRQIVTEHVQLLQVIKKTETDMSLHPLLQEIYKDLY
Protocol: (§4) CV-1 cells were transfected with pCMVhPPARγ3 or the empty expression vector pBKCMV (no receptor). Thiazolidinedione was added.
as §1, §2, §3
To increase the level of hPPARγ protein synthesis, Applicant deleted a region containing the two inframe upstream ATG codons since these are absent in mouse PPARγ. pCMVhPPARγ was digested with NcoI, blunt ended with Klenow, and digested again with KpnI. The insert was isolated and directionally cloned into pBKCMV plasmid, which was digested with XbaI (blunt ended with Klenow) and KpnI. In the ensuing plasmid pCMVhPPARγ3, the translation initiation codon is within the context of a stronger Kozak translation initiation sequence.
(§5) A cotransfection assay was performed in CV-1 cells with the pPREA3-tk-LUC and 1 μM thiazolidinedione (BRL 49,653, see Ibrahimi et al., Molecular Pharmacology 46:1070–1076, 1994). Thiazolidinedione is an insulin sensitizer and has potential use in the treatment of non-insulin dependant diabetes mellitus.

[3] = tested on: CV-1 cells transfected with the empty expression vector pBKCMV (no receptor); assay: Co-transfection assay, control CV-1 cells transfected with empty expression vector, FIG. 4; type: cell-based, monkey; conditions: CV-1 cells transfected with the empty expression vector (no receptor); 1 μM compound
Protocol: as §4, §1, §2, §3, §5

mPPARγ = conditions: Tontonoz et al. 1994; Kliewer et al.; cited from earlier work

Q: For `CC1=C(/C=C/C(C)=C\C=C\C(C)=C\C(=O)O)C(C)(C)CCC1` [9-cis retinoic acid], which “activation of hPPARγ (fold induction of reporter gene versus control cells)” value (hPPARγ [1]) is on record?
A: Its value is “same fold activation as in control transfections”.

Q: With `Cc1ccc(C)c(OCCCC(C)(C)C(=O)O)c1` [gemfibrozil] as the compound, how does the “activation of hPPARα” value (hPPARα) read?
A: Its value is “activated”.

Q: What does the source list for `O=C1CSC(=O)N1` [Thiazolidinedione]?
A: fold induction at 1 µM (hPPARγ [2]): 25; fold activation of reporter gene [3]: 7 fold

Q: Which “transcriptional activation of mPPARγ” value (mPPARγ) does the source give for `CCCc1c(OCCCCc2nnn[nH]2)ccc(C(C)=O)c1O` [LY-171,883] here?
A: Its value is “transcriptionally activated”.

Q: With `CCCCCC#CCC#CCC#CCC#CCCCC(=O)O` [ETYA, 5,8,11,14-eicosatetraynoic acid] as the compound, how does the “transcriptional activation of mPPARγ” value (mPPARγ) read?
A: Its value is “transcriptionally activated”.
